Values after ≈ are worked out from the molar mass of the structure shown. Where a name gives a salt, the structure may show the parent alone. Read-outs that look alike come from different tables or passages of the source.
Key:
Solubility in water = type: physicochemical
HSV-1-VR-3 = test: Antiviral activity in human embryonic lung fibroblasts (method of Sidwell et al), HSV-1-VR-3; type: cell-based, herpes simplex virus type 1 strain VR3; set-up: MIC: minimum inhibitory concentration at which HSV induced cytopathogenic effects were depressed more than 50%: unit not given here
Description: (§1) According to the method of Sidwell et al (Applied Microbiology, 22, (5), 797 (1971)), with the use of human embryonic lung fibroblasts, the antiviral activities of BVAUP and CVAUP were tested, with BVAU, CVAU and 5-iodo-2'-deoxyuridine (IDU) as controls.
(§2) effects were depressed more than 50%;
^1 HSV1-VR-3: herpes simplex virus type 1 strain VR3

HSV-2-MS = test: Antiviral activity in human embryonic lung fibroblasts (method of Sidwell et al), HSV-2-MS; type: cell-based, herpes simplex virus type 2 strain MS; set-up: MIC: minimum inhibitory concentration at which HSV induced cytopathogenic effects were depressed more than 50%: unit not given here
Description: as §1, §2
^2 HSV2-MS: herpes simplex virus type 2 strain MS

[1] = tested on: RE strain of HSV (type 1); test: Ulcerative herpetic keratitis in pigmented rabbits, ointment treatment; type: in vivo, RE strain; pigmented rabbits; set-up: Effect (lesion inhibition): unit not given here; settings: for Effect (lesion inhibition): control 0; for % score: control 100
Description: (1) Pigmented rabbits, weighing between 2.0 and 3.0 kg, were anesthetised with intravenous pentobarbital sodium (30 mg/kg) and given a retrobulbar injection of 0.5 ml of 1% procaine. For inoculation a suspension of the RE strain of HSV (type 1) was drawn into a fine glass capillary tube (British Journal of Ophthalmology, Vol. 63, No. 6, 425-428 (1979).
After inoculation the eye was left open for 30 seconds and then the lids were closed with cellophane tape. The same procedure was repeated on the other eye. In one group of 3 rabbits the right eyes were treated with 1% BVAUP ointment and the left eyes with 1% BVAU ointment, or vice versa. In another group 3 eyes received no treatment as controls. The treatment was started 48 hours after inoculation and continued every 2 hours during the daytime 5 times a day for 4 days. The eyes were examined 48 hours after inoculation and then every 24 hours with a photo-slit lamp after applying 1% Bengal rose. Each inoculation site was scored according to the extent of the circumference infected.
The total daily score for each eye was calculated and expressed as a percentage of the score (percentage score) immediately before treatment. The therapeutic efficacies of BVAUP and BVAU against ulcerative herpetic keratitis were compared by calculating their average percentage scores.
(2) 0.3% BVAUP ointment and 3% BVAUP ointment were respectively prepared, and were subjected to the similar pharmacological test as shown in (1).

type 2 herpes (HSV-2) = test: Antiviral activity against HSV-2 compared with HSV-1 or VZV (general statement)
[2] = Acute toxicity (LD50) in mice; settings: mouse, in vivo
[3] = 1% ointment, 5 times a day for 4 days
[4] = 1% ointment, 5 times a day for 4 days, control 97.0

SMILES	solubility (Solubility in water) [mg/mL]	MIC: minimum inhibitory concentration at which HSV induced cytopathogenic effects were depressed more than 50% (HSV-1-VR-3)	VR: virus rating (HSV-1-VR-3)	MIC: minimum inhibitory concentration at which HSV induced cytopathogenic effects were depressed more than 50% (HSV-2-MS)	VR: virus rating (HSV-2-MS)	Effect (lesion inhibition) [1, 3]	Total score per eye [1, 4]	% score [1, 3] [%]	antiviral activity against HSV-2 (type 2 herpes (HSV-2))	LD50 ([2]; ip, intraperitoneally, read-out: LD50, intraperitoneal) [mg/kg]	LD50 ([2]; iv, intravenously, read-out: LD50, intravenous) [mg/kg]	Effect (lesion inhibition) ([1]; 0.3% ointment)	Total score per eye ([1]; 0.3% ointment, control 88.7)	% score ([1]; 0.3% ointment) [%]	Effect (lesion inhibition) ([1]; 3% ointment)	% score ([1]; 3% ointment) [%]	Total score per eye ([1]; 3% ointment, control 114.0)
O=c1[nH]c(=O)n([C@@H]2O[C@H](CO)[C@@H](O)[C@@H]2O)cc1/C=C/Br [BVAU, 1-β-D-arabinofuranosyl-(E)-5-(2-bromovinyl)uracil, reference compound]	4 (≈ 11.5 mM)	0.032	3.7	32	1.1	43.0	55.3	57.0									
O=c1[nH]c(=O)n([C@@H]2O[C@H](COP(=O)(O)O)[C@@H](O)[C@@H]2O)cc1/C=C/Br [BVAUP, 1-β-D-arabinofuranosyl-(E)-5-(2-bromovinyl)uracil-5'-phosphate]		0.032	3.8	32	1.1	53.9	44.7	46.1	lower than that against the type 1 herpes (HSV-1) or VZV	1730	1610	38.3	54.7	61.7	71.9	28.1	32.0
O=c1[nH]c(=O)n([C@@H]2O[C@H](CO)[C@@H](O)[C@@H]2O)cc1/C=C/Cl [CVAU, 1-β-D-arabinofuranosyl-(E)-5-(2-chlorovinyl)uracil]		0.032	3.7	100	0.7												
O=c1[nH]c(=O)n([C@@H]2O[C@H](COP(=O)(O)O)[C@@H](O)[C@@H]2O)cc1/C=C/Cl [CVAUP, 1-β-D-arabinofuranosyl-(E)-5-(2-chlorovinyl)uracil-5'-phosphate]		0.032	3.7	320	0.5												
O=c1[nH]c(=O)n([C@H]2C[C@H](O)[C@@H](CO)O2)cc1I [IDU, 5-iodo-2'-deoxyuridine]		3.2	2.4	3.2	2.2												
O=c1[nH]c(=O)n([C@@H]2O[C@H](COP(=O)(O)O)[C@@H](O)[C@@H]2O)cc1/C=C/Br [disodium salt of 1-β-D-arabinofuranosyl-(E)-5-(2-bromovinyl)uracil-5'-phosphate]	~500																

— patent US4542210A, “1-β-D-Arabinofuranosyl-(E)-5-(2-halogenovinyl)-uracil-5'-phosphate, preparation thereof and use thereof” (Yamasa Shoyu Kabushiki Kaisha, priority 1981, dated 1985)
